From patent US4332820A, “Substituted benzonitriles having antiviral activity” (The Dow Chemical Company, priority 1980, dated 1982)
In brackets after ≈: the same amount, converted by molar mass.

Columns and labels:
Coxsackie B2 = type: cell-based; settings: enterovirus Coxsackie B2
Cox A21 = test: Single Oral Dose test in mice challenged with Cox A21; type: in vivo, Swiss male mice; settings: for X^2 (Single Oral Dose, chi-square of deaths vs virus control): 600 mg/kg, 3 h
influenze PR 8 = type: cell-based; settings: at the test concentrations
rhinovirus type 75 = test: Inhibition of multiplication, WI-38 cell culture tubes; type: cell-based; settings: Enterovirus, 25 μg/ml, read-out: inhibition grade
rhinovirus type 13 = test: as above; type: cell-based; settings: Enterovirus, 25 μg/ml, read-out: inhibition grade
rhinovirus type 4 = test: as above; type: cell-based; settings: Enterovirus, 25 μg/ml, read-out: inhibition grade
rhinovirus type 64 = test: as above; type: cell-based; settings: Enterovirus, 25 μg/ml, read-out: inhibition grade
rhinovirus type 2 (RV-2) = test: Tissue culture antiviral testing, RV-2 (cytopathic effect, HeLa cells); type: cell-based; settings: Enterovirus, HeLa cells, NA = not active at the standard test conditions, read-out: Lowest concentration of the compound necessary to cause a 50 percent reduction in cytopathic effect
Acute toxicity in rats = settings: rat, in vivo
rhinovirus type 58 = test: Inhibition of multiplication, WI-38 cell culture tubes; type: cell-based; settings: Enterovirus, 25 μg/ml, read-out: inhibition grade
rhinovirus type 68 = test: as above; type: cell-based; settings: Enterovirus, 25 μg/ml, read-out: inhibition grade
parainfluenza 1 = type: cell-based; settings: at the test concentrations
adenovirus (untyped) = type: cell-based; settings: at the test concentrations
rhinovirus type 8 = test: Inhibition of multiplication, WI-38 cell culture tubes; type: cell-based; settings: Enterovirus, 25 μg/ml, read-out: inhibition grade
rhinovirus type 5 (RV-5) = test: Tissue culture antiviral testing, RV-5 (cytopathic effect, HeLa cells); type: cell-based; settings: Enterovirus, HeLa cells, read-out: Lowest concentration of the compound necessary to cause a 50 percent reduction in cytopathic effect
rhinovirus type 81 = test: Inhibition of multiplication, WI-38 cell culture tubes; type: cell-based; settings: Enterovirus, 25 μg/ml, read-out: inhibition grade
Picornaviruses = test: Antiviral activity against picornaviruses, overall (tissue culture and animal testing)
Method: Monolayered HeLa cells in 16 millimeter (mm) tissue culture dishes were treated with 1 ml of culture medium (Eagles medium supplemented with fetal calf serum) containing subject compound at an appropriate concentration or containing no compound at all. Culture mediums such as those described herein are more fully described in standard texts, as for example, Kuchler's Biochemical Methods in Cell Culture and Virology, Dowden, Hutchinson and Ross, Inc., Stroudsberg, Pa. (1977). Following treatment, cells were challenged with 0.05 ml of rhinovirus type 1A (RV-1A), rhinovirus type 2 (RV-2) or Coxsackie A21 virus (Cox A21) in culture medium. Some of the compounds were also tested against rhinovirus type 5 (RV-5), rhinovirus type 8 (RV-8) or rhinovirus type 64 (RV-64). Cell controls received no viruses.
In addition, some of the compounds were tested in animals utilizing the following procedure, hereinafter referred to as the "Single Oral Dose" test. […] Mice were observed daily for 7-10 days post-challenge and deaths recorded. […]
Some of the compounds were also tested in animals utilizing the following procedure, hereinafter referred to as the "Continuous Oral Feeding" test. […] Deaths in both control and experimental groups were recorded for the 10 days and the results analyzed by a chi-square test. […]

[1] = system: feline calici virus, unconfirmed; type: cell-based; settings: at the test concentrations
[2] = system: Coxsackie A21 virus (Cox A21); test: Tissue culture antiviral testing, Cox A21 (cytopathic effect, HeLa cells); type: cell-based; settings: HeLa cells, NA = not active at the standard test conditions, read-out: Lowest concentration of the compound necessary to cause a 50 percent reduction in cytopathic effect
rhinovirus type 59 = test: Inhibition of multiplication, WI-38 cell culture tubes; type: cell-based; settings: Enterovirus, 25 μg/ml, read-out: inhibition grade
Coxsackie A21 virus = test: Continuous Oral Feeding test in mice challenged with Coxsackie A21; type: in vivo; settings: for X^2 (Continuous Oral Feeding, chi-square of deaths): 0.06 % in diet, 240 h, 0.06 % strength
rhinovirus type 10 = test: Inhibition of multiplication, WI-38 cell culture tubes; type: cell-based; settings: Enterovirus, 25 μg/ml, read-out: inhibition grade
rhinovirus type 6 = test: as above; type: cell-based; settings: Enterovirus, 25 μg/ml, read-out: inhibition grade
[3] = system: Herpes simplex virus type 1; type: cell-based; settings: at the test concentrations
[4] = system: Hank's (untyped) rhinovirus; test: Inhibition of multiplication, WI-38 cell culture tubes; type: cell-based; settings: Enterovirus, 25 μg/ml, read-out: inhibition grade
[5] = Cytotoxicity in tissue culture (HeLa monolayers); type: cell-based; settings: human; HeLa cells; observed at 48 and 72 hours post-treatment; read-out: Cytotoxicity (concentration of the compound found to be toxic to the cell)
rhinovirus type 39 = test: Inhibition of multiplication, WI-38 cell culture tubes; type: cell-based; settings: Enterovirus, 25 μg/ml, read-out: inhibition grade
influenza A = type: cell-based; settings: at the test concentrations
rhinovirus type 19 = test: Inhibition of multiplication, WI-38 cell culture tubes; type: cell-based; settings: Enterovirus, 25 μg/ml, read-out: inhibition grade
rhinovirus type 74 = test: as above; type: cell-based; settings: Enterovirus, 25 μg/ml, read-out: inhibition grade
Coxsackie B4 = type: cell-based; settings: enterovirus Coxsackie B4
rhinovirus type 8 (RV-8) = test: Tissue culture antiviral testing, RV-8 (cytopathic effect, HeLa cells); type: cell-based; settings: Enterovirus, HeLa cells, read-out: Lowest concentration of the compound necessary to cause a 50 percent reduction in cytopathic effect
[6] = system: rhinovirus type 1A (RV-1A); test: Tissue culture antiviral testing, RV-1A (cytopathic effect, HeLa cells); type: cell-based; settings: Enterovirus, HeLa cells, NA = not active at the standard test conditions, read-out: Lowest concentration of the compound necessary to cause a 50 percent reduction in cytopathic effect
rhinovirus type 29 = test: Inhibition of multiplication, WI-38 cell culture tubes; type: cell-based; settings: Enterovirus, 25 μg/ml, read-out: inhibition grade
[7] = system: rhinovirus type 64 (RV-64); test: Tissue culture antiviral testing, RV-64 (cytopathic effect, HeLa cells); type: cell-based; settings: Enterovirus, HeLa cells, NA = not active at the standard test conditions, read-out: Lowest concentration of the compound necessary to cause a 50 percent reduction in cytopathic effect
rhinovirus type 60 = test: Inhibition of multiplication, WI-38 cell culture tubes; type: cell-based; settings: Enterovirus, 25 μg/ml, read-out: inhibition grade
[8] = system: parainfluenza NDV (Newcastle's disease virus); type: cell-based; settings: at the test concentrations
[9] = Acute oral toxicity in beagle dogs; settings: dog, in vivo
From the text: Testing in beagle dogs indicated an acute oral toxicity of greater than 2 grams/kg.

influenza WSN = test: Further tissue culture testing; type: cell-based; settings: at the test concentrations
rhinovirus type 21 = test: Inhibition of multiplication, WI-38 cell culture tubes; type: cell-based; settings: Enterovirus, 25 μg/ml, read-out: inhibition grade
rhinovirus type 56 = test: as above; type: cell-based; settings: Enterovirus, 25 μg/ml, read-out: inhibition grade
rhinovirus type 17 = test: as above; type: cell-based; settings: Enterovirus, 25 μg/ml, read-out: inhibition grade

For `N#Cc1cc([N+](=O)[O-])ccc1Oc1ccc(Cl)c(Cl)c1` [Example 1, 2-(3,4-Dichlorophenoxy)-5-nitrobenzonitrile], the inhibitory activity (Coxsackie B2) was “displayed inhibitory activity”, the “antiviral activity in the "Single Oral Dose" test” value (Cox A21; in words, 95% confidence level) was “exhibited antiviral activity” and the “X^2 (Single Oral Dose, chi-square of deaths vs virus control)” value (Cox A21) was 5.36. For the same compound, the “effect on virus multiplication” value (influenze PR 8) was “did not affect the multiplication”, the inhibition at 25 µg/mL (rhinovirus type 75) was at least 75% and the inhibition at 25 µg/mL (rhinovirus type 13) was at least 75%. It also gave an inhibition at 25 µg/mL (rhinovirus type 4) of at least 75%, an inhibition at 25 µg/mL (rhinovirus type 64) of at least 75% and an EC50 (rhinovirus type 2 (RV-2)) of 0.25 µg/mL (≈ 0.809 µM). It also gave an LD50 (Acute toxicity in rats; ip, intraperitoneal, read-out: acute toxicity, intraperitoneal administration) of over 2000 mg/kg, an LD50 (Acute toxicity in rats; oral, read-out: acute oral toxicity) of about 5000 mg/kg and an inhibition at 25 µg/mL (rhinovirus type 58) of at least 75%. The inhibition at 25 µg/mL (rhinovirus type 68) was at least 75%, the “effect on virus multiplication” value (parainfluenza 1) was “did not affect the multiplication” and the “effect on virus multiplication” value (adenovirus (untyped)) was “did not affect the multiplication”. The inhibition at 25 µg/mL (rhinovirus type 8) was at least 75%, the EC50 (rhinovirus type 5 (RV-5)) was 0.5 µg/mL (≈ 1.62 µM) and the inhibition at 25 µg/mL (rhinovirus type 81) was at least 75%. The effectiveness against picornaviruses (Picornaviruses; general statement) was “particularly effective against Picornaviruses”, the “antiviral activity compared with 5-(3,4-dichlorophenoxy)-2-nitrobenzonitrile” value (Picornaviruses; standard tissue culture and animal testing) was “markedly greater antiviral activity” and the “effect on virus multiplication” value [1] was “did not affect the multiplication”. The EC50 [2] was 0.25 µg/mL (≈ 0.809 µM), the inhibition at 25 µg/mL (rhinovirus type 59) was at least 75% and the “antiviral activity in the "Continuous Oral Feeding" test” value (Coxsackie A21 virus; in words, 95% confidence level) was “exhibited antiviral activity”. For the same compound, the “X^2 (Continuous Oral Feeding, chi-square of deaths)” value (Coxsackie A21 virus) was 23.62, the inhibition at 25 µg/mL (rhinovirus type 10) was at least 75% and the inhibition at 25 µg/mL (rhinovirus type 6) was at least 75%. For the same compound, the “effect on virus multiplication” value [3] was “did not affect the multiplication”, the inhibition at 25 µg/mL [4] was at least 75% and the MCC [5] was over 100 µg/mL. For the same compound, the inhibition at 25 µg/mL (rhinovirus type 39) was at least 75%, the “effect on virus multiplication” value (influenza A) was “did not affect the multiplication” and the inhibition at 25 µg/mL (rhinovirus type 19) was at least 75%. The inhibition at 25 µg/mL (rhinovirus type 74) was at least 75%, the inhibitory activity (Coxsackie B4) was “displayed inhibitory activity” and the EC50 (rhinovirus type 8 (RV-8)) was 0.25 µg/mL (≈ 0.809 µM). For the same compound, the EC50 [6] was 0.5 µg/mL (≈ 1.62 µM), the inhibition at 25 µg/mL (rhinovirus type 29) was at least 75% and the EC50 [7] was 0.156 µg/mL (≈ 0.505 µM). The inhibition at 25 µg/mL (rhinovirus type 60) was at least 75%, the “effect on virus multiplication” value [8] was “did not affect the multiplication” and the LD50 [9] was over 2000 mg/kg. The “effect on virus multiplication” value (influenza WSN) was “did not affect the multiplication”, the inhibition at 25 µg/mL (rhinovirus type 21) was at least 75% and the inhibition at 25 µg/mL (rhinovirus type 56) was at least 75%. It also gave an inhibition at 25 µg/mL (rhinovirus type 17) of at least 75%.

For `N#Cc1cc([N+](=O)[O-])ccc1Oc1ccc(Cl)cc1Cl` [Example 2, 2-(2,4-Dichlorophenoxy)-5-nitrobenzonitrile], the “X^2 (Single Oral Dose, chi-square of deaths vs virus control)” value (Cox A21) was 3.659, the EC50 (rhinovirus type 2 (RV-2)) was 0.625 µg/mL (≈ 2.02 µM) and the EC50 (rhinovirus type 5 (RV-5)) was 2.5 µg/mL (≈ 8.09 µM). The EC50 [2] was 1.25 µg/mL (≈ 4.04 µM), the “X^2 (Continuous Oral Feeding, chi-square of deaths)” value (Coxsackie A21 virus) was 1.38 and the MCC [5] was over 100 µg/mL. It also gave an EC50 (rhinovirus type 8 (RV-8)) of 2.5 µg/mL (≈ 8.09 µM) and an EC50 [6] of 0.625 µg/mL (≈ 2.02 µM).

In the case of `N#Cc1cc([N+](=O)[O-])ccc1Oc1ccc(Cl)cc1` [Example 4, 2-(4-Chlorophenoxy)-5-nitrobenzonitrile], the “X^2 (Single Oral Dose, chi-square of deaths vs virus control)” value (Cox A21) was 0.252, the EC50 (rhinovirus type 2 (RV-2)) was at most 0.625 µg/mL and the EC50 (rhinovirus type 5 (RV-5)) was under 0.3 µg/mL. The EC50 [2] was 0.625 µg/mL (≈ 2.28 µM), the “X^2 (Continuous Oral Feeding, chi-square of deaths)” value (Coxsackie A21 virus) was 10.61 and the MCC [5] was over 100 µg/mL. It also gave an EC50 (rhinovirus type 8 (RV-8)) of under 6 µg/mL and an EC50 [6] of at most 0.625 µg/mL.
